Assay results from ChEMBL document CHEMBL4507276 (2021).

What was measured:
[1] = molecular target: T1, Sodium-dependent dopamine transporter (Homo sapiens, UniProt Q01959); assay: GPCRScan assay: inhibition of DAT; design: radioligand conc. used [nm] 3.6 – 16.0, parental cells stable HEK
[2] = molecular target: Delta-type opioid receptor (Homo sapiens) (UniProt P41143); assay: DELTA2/H Cerep selectivity data (BI); details: Compound concentration 20.0 uM
[3] = molecular target: T2, Mitogen-activated protein kinase kinase kinase kinase 2 (Homo sapiens) (UniProt Q12851); assay: MAP4K2 Invitrogen selectivity data (BI); details: Compound concentration 3.0 uM
T2 sequence (whole entry): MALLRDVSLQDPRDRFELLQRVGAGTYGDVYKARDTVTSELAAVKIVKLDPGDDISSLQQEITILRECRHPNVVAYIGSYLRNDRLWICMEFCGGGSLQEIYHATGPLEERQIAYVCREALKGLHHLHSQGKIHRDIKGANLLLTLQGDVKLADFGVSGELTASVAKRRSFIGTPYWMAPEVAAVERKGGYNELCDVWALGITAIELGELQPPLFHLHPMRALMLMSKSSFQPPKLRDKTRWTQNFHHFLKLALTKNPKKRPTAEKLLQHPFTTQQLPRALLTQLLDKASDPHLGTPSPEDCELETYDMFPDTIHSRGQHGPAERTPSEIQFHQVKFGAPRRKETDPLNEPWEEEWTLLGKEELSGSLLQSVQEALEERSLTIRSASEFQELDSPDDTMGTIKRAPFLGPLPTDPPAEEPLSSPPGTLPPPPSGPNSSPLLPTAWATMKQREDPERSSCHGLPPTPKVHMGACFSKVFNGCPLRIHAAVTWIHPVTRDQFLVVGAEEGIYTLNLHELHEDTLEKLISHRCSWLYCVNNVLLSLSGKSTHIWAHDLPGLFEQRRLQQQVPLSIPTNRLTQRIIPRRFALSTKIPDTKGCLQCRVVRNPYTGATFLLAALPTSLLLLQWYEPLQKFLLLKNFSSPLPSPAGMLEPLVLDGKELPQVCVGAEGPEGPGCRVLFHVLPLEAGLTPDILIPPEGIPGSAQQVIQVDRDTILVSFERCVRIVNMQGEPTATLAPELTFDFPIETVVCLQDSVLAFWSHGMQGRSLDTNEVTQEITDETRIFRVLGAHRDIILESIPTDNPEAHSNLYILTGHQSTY

[4] = molecular target: Dual specificity tyrosine-phosphorylation-regulated kinase 3 (Homo sapiens) (UniProt O43781); assay: DYRK3 Invitrogen selectivity data (BI); details: Compound concentration 3.0 uM
Dual specificity tyrosine-phosphorylation-regulated kinase 3 (Homo sapiens), sequence (O43781 whole entry): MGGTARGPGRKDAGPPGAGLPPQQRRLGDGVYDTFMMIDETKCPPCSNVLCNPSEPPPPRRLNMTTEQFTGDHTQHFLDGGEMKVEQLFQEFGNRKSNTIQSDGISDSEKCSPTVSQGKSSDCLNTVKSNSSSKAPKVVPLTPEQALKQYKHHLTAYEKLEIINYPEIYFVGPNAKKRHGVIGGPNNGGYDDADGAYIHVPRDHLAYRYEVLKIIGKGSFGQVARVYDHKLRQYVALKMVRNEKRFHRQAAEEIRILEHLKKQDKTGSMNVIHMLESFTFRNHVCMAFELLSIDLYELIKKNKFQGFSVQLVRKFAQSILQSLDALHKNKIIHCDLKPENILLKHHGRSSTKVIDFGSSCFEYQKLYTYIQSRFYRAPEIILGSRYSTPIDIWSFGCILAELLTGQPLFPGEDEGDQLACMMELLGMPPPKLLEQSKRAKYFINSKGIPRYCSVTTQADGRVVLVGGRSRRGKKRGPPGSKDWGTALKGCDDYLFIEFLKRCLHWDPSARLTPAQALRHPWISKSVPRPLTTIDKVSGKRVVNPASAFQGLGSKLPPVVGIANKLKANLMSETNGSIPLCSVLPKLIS

[5] = molecular target: Protein kinase C beta type (Homo sapiens) (UniProt P05771); assay: PRKCB1 Invitrogen selectivity data (BI); details: Compound concentration 3.0 uM
Protein kinase C beta type (Homo sapiens), sequence (P05771 2-671 limits assumed): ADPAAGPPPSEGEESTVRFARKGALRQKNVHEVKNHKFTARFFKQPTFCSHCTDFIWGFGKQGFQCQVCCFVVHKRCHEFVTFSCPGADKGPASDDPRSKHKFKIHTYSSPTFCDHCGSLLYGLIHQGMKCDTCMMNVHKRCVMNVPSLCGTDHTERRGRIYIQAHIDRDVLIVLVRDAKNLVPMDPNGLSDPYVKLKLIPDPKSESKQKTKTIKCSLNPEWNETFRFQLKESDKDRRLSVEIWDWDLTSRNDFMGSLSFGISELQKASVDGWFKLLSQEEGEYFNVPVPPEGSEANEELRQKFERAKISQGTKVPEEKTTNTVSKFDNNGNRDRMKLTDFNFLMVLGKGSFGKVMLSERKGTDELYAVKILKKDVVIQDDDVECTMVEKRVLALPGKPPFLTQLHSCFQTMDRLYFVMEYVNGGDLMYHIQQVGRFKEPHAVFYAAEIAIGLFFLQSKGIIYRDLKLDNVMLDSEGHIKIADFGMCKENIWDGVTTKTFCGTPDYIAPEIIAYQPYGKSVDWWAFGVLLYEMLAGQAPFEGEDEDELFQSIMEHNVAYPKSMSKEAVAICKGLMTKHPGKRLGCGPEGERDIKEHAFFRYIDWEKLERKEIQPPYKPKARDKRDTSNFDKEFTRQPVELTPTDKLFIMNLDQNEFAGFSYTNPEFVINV

[6] = molecular target: Protein kinase C beta type (Homo sapiens) (UniProt P05771); assay: PRKCB2 Invitrogen selectivity data (BI); details: Compound concentration 3.0 uM
[7] = molecular target: Sodium-dependent serotonin transporter (Homo sapiens) (UniProt P31645); assay: 5HTTRANS/H Cerep selectivity data (BI); details: Compound concentration 20.0 uM
Sodium-dependent serotonin transporter (Homo sapiens), sequence (P31645 whole entry, looked up): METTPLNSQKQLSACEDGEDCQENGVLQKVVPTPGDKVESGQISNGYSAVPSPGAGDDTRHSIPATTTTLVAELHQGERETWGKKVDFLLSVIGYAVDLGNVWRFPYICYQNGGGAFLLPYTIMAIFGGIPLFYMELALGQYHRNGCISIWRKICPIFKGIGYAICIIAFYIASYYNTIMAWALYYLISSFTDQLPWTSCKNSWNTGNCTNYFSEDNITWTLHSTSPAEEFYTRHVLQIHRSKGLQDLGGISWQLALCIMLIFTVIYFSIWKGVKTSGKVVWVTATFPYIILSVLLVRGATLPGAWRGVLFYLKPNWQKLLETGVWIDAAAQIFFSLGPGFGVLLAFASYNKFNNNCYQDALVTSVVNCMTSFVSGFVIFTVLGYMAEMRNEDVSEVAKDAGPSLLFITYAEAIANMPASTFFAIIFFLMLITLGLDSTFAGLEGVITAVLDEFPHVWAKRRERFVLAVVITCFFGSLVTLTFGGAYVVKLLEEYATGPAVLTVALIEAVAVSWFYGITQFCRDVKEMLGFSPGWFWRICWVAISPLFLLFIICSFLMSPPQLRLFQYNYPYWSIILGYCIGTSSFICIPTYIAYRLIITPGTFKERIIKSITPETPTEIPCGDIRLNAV

[8] = molecular target: G protein-coupled receptor kinase 4 (Homo sapiens) (UniProt P32298); assay: GRK4 Invitrogen selectivity data (BI); details: Compound concentration 3.0 uM
G protein-coupled receptor kinase 4 (Homo sapiens), sequence (P32298 whole entry, looked up): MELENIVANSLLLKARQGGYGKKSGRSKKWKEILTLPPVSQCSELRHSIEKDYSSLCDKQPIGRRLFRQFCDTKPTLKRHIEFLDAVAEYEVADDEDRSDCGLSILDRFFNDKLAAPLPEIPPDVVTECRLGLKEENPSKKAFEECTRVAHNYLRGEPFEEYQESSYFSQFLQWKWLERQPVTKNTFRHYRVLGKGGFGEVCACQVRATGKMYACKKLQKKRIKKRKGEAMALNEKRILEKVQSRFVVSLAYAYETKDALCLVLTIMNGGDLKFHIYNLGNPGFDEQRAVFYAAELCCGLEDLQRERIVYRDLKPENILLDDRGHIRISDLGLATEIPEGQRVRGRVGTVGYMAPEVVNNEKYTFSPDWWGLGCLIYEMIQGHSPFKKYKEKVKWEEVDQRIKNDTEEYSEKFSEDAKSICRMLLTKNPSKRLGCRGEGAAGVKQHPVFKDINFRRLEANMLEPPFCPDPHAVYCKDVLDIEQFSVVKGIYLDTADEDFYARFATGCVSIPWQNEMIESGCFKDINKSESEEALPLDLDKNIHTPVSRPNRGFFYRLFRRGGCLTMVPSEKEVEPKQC

[9] = molecular target: D(3) dopamine receptor (Homo sapiens) (UniProt P35462); assay: D3/H Cerep selectivity data (BI); details: Compound concentration 20.0 uM
D(3) dopamine receptor (Homo sapiens), sequence (P35462 whole entry): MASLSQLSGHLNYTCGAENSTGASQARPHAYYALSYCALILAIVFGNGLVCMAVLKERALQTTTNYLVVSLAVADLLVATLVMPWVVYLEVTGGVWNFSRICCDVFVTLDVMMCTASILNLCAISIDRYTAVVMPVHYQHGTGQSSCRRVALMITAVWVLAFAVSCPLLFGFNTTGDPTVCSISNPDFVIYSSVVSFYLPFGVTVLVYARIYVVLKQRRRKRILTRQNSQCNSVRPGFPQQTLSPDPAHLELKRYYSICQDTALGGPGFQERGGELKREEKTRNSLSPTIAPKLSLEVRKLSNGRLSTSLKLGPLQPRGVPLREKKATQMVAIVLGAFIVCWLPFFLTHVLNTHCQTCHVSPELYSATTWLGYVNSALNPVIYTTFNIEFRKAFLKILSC

[10] = molecular target: T1, Sodium-dependent dopamine transporter; assay: DATRANS/HUM Cerep selectivity data (BI); details: Compound concentration 20.0 uM
[11] = molecular target: T3, Muscarinic acetylcholine receptor M1 (Homo sapiens) (UniProt P11229); assay: M1/HU Eurofins-Panlabs selectivity data (BI); details: Compound concentration 10.0 uM
T3 sequence (whole entry): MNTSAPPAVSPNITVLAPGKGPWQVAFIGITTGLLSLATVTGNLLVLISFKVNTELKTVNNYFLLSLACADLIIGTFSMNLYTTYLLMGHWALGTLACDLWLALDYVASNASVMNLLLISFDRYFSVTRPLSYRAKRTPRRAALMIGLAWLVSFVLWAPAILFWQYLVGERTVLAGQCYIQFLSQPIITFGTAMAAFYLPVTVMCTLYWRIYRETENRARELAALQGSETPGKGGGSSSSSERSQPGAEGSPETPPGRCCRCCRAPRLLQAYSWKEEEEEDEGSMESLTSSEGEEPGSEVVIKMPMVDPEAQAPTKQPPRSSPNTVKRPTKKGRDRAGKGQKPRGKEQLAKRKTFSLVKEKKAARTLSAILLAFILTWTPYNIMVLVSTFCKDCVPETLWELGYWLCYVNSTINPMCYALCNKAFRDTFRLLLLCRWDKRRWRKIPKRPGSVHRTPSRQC

[12] = molecular target: T4, Discoidin domain-containing receptor 2 (Homo sapiens) (UniProt Q16832); assay: DDR2 Invitrogen selectivity data (BI); details: Compound concentration 3.0 uM
T4 sequence (whole entry): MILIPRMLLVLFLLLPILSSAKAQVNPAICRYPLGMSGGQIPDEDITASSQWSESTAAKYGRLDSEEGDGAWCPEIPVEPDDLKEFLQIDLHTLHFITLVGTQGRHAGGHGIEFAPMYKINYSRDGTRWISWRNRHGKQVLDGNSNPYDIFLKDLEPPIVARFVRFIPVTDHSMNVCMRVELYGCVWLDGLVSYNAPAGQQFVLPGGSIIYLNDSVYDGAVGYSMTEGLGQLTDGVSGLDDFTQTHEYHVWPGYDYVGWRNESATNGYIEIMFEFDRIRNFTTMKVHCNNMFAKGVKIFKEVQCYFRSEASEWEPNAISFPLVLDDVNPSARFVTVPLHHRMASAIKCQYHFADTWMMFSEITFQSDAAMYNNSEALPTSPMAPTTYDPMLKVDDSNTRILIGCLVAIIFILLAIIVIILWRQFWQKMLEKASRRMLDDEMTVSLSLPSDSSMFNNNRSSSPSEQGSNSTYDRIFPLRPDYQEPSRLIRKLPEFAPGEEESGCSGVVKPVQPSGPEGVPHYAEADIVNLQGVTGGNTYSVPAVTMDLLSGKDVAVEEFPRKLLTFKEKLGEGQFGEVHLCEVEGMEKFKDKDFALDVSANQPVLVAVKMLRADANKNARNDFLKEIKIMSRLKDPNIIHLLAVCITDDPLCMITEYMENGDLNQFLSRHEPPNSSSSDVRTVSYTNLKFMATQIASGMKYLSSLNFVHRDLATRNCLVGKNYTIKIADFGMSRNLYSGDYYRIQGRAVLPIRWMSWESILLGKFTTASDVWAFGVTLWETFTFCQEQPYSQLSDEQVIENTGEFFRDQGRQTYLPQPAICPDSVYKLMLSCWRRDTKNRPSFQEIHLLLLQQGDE

[13] = molecular target: Mitogen-activated protein kinase kinase kinase 14 (Homo sapiens) (UniProt Q99558); assay: MAP3K14 Invitrogen selectivity data (BI); details: Compound concentration 3.0 uM
Mitogen-activated protein kinase kinase kinase 14 (Homo sapiens), sequence (Q99558 whole entry, looked up): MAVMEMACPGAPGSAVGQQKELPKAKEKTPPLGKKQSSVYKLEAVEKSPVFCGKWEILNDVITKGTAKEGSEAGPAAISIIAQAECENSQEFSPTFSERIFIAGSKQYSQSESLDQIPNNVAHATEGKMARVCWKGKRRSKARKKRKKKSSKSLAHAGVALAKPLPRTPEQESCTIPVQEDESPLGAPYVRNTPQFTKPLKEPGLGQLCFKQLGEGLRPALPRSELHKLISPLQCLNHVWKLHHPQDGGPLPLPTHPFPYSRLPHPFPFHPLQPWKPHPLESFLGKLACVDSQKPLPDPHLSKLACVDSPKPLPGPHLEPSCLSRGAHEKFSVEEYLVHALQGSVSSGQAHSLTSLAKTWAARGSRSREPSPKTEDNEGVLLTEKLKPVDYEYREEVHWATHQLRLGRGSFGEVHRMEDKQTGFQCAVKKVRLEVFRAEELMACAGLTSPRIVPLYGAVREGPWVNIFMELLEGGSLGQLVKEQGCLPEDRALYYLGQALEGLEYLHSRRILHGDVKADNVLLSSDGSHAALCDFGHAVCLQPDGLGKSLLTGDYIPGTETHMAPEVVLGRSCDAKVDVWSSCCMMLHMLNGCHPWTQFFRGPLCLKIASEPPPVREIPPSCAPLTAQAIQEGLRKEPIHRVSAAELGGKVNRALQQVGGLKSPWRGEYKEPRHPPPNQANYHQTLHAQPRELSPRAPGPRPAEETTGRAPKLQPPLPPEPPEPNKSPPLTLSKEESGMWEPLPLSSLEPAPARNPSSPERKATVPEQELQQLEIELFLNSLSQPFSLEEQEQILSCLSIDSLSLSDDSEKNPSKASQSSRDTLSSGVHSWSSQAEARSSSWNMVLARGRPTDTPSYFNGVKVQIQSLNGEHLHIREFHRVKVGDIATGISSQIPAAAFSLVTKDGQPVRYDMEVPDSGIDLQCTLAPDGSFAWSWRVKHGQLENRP

T1 sequence (Q01959 whole entry): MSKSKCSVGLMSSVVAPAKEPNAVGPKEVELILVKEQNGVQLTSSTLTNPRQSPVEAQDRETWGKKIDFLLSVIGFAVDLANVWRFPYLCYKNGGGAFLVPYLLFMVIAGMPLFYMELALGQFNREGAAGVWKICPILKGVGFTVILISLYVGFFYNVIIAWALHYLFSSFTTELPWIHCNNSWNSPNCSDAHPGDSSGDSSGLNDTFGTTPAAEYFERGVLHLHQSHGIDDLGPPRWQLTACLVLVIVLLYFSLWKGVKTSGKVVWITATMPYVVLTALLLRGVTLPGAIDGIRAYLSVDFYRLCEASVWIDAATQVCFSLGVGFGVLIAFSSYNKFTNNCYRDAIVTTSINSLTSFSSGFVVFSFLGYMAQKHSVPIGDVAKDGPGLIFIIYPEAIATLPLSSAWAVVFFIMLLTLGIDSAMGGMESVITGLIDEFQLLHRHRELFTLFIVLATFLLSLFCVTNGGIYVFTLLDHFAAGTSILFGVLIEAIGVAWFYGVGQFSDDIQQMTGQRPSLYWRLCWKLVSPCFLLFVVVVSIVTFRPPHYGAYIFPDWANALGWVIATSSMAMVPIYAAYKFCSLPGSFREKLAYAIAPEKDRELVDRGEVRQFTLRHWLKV
Delta-type opioid receptor (Homo sapiens), sequence (P41143 whole entry): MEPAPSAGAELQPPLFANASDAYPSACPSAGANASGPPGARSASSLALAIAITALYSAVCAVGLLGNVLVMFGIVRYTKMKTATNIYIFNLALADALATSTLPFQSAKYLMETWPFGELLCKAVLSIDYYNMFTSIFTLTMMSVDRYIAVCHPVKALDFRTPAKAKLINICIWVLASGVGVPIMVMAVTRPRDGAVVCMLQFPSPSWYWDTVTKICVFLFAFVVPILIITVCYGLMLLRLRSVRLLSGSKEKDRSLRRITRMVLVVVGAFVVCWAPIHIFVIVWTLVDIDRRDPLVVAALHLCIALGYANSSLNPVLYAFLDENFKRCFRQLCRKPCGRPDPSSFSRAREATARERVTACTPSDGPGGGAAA

SMILES | Ki ([1]; read-out: Ki) [nM] | Ki ([1]; read-out: pKi (converted)) [nM] | residual activity [2] [%] | residual activity [3] [%] | residual activity [4] [%] | residual activity [5] [%] | residual activity [6] [%] | residual activity [7] [%] | residual activity [8] [%] | residual activity [9] [%] | residual activity [10] [%] | residual activity [11] [%] | residual activity [12] [%] | residual activity [13] [%]
CN(C)C(=O)Cn1cc(-c2nc(C3(c4ccc(-c5cnc(N)nc5)cc4)CC3)no2)cn1 [BI 0153] | 855 | 794 | – | – | – | – | – | – | – | – | – | – | – | –
CN(C)C(=O)Cn1cc(-c2nc([C@@](C)(c3ccc(-c4cnc(N)nc4)cc3)C3CC3)no2)cn1 [BI 665915] | – | – | 100 | 99.5 | 102 | 98.5 | 100 | 103 | 102 | 100 | 87 | 90 | 96 | 98
